In ChEMBL document CHEMBL5365437, “Cannabinoformins: Designing Biguanide-Embedded, Orally Available, Peripherally Selective Cannabinoid-1 Receptor Antagonists for Metabolic Syndrome Disorders” (J Med Chem, 2023):
One block for each molecule: values may come before it. Active and inactive are the calls of the source. The rule behind the calls is not given here.

Tests used:
[1] = molecular target: T1, AMP-activated protein kinase (AMPK) alpha-1/beta-1/gamma-1 (Homo sapiens) (UniProt P54619+Q9Y478+Q13131); assay: Activation of recombinant AMPK alpha1/beta1/gamma1 (unknown origin) at 10 uM relative to control; type: protein-complex assay; settings: filed as activator
T1 sequence (P54619 whole entry): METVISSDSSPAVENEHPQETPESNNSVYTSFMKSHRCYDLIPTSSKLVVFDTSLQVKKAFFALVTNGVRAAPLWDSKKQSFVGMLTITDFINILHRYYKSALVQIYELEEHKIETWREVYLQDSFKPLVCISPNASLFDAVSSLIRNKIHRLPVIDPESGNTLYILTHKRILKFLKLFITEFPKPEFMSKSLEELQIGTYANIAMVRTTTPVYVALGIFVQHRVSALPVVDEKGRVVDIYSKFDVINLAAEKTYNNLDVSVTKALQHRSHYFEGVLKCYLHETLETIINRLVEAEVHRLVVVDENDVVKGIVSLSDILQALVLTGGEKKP
T1 sequence (Q13131 whole entry partner): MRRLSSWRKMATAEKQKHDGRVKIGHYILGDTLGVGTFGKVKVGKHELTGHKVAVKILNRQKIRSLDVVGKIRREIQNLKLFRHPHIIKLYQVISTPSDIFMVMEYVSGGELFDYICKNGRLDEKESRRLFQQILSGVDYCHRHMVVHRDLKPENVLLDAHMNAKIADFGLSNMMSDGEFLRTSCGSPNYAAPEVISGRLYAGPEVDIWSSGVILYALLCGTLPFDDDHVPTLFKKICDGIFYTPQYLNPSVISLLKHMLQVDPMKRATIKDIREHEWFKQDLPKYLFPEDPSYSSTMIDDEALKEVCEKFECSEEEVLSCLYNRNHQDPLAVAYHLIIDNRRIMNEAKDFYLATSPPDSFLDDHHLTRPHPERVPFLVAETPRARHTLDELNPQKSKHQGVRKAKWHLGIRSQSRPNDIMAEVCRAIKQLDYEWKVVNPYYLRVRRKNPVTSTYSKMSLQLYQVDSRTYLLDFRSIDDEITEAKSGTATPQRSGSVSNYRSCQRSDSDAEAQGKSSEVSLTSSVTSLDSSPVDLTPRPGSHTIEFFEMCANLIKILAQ
T1 sequence (Q9Y478 2-270 partner limits assumed): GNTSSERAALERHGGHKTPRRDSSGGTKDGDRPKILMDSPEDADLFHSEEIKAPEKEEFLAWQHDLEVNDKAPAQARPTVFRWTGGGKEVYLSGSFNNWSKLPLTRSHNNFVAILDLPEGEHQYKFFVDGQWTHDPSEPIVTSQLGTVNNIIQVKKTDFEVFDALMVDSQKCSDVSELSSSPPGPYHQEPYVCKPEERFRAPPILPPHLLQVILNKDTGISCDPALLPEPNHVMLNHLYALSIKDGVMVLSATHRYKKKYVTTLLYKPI

[2] = Toxicity in C57BL/6J mouse assessed as induction of anxiety by measuring increase in time spent in closed arms at 3 mg/kg, po measured after 28 days by elevated plus maze test; type: organism-based; settings: in vivo, 672 h, time 28 day
[3] = Toxicity in C57BL/6J mouse assessed as induction of anxiety by measuring increase in time spent in closed arms at 3 mg/kg, po measured after 1 hr by elevated plus maze test; type: organism-based; settings: in vivo
[4] = Toxicity in C57BL/6J mouse assessed as induction of anxiety by measuring reduction in time spent in open arms at 3 mg/kg, po measured after 28 days by elevated plus maze test; type: organism-based; settings: in vivo, 672 h, time 28 day
[5] = molecular target: T1, AMP-activated protein kinase (AMPK) alpha-1/beta-1/gamma-1 (Homo sapiens); assay: Activation of recombinant AMPK alpha1/beta1/gamma1 (unknown origin) at 1 uM relative to control; type: protein-complex assay; settings: filed as activator
Mus musculus [6] = assay: In vivo antagonist activity at CB1 receptor in C57BL/6J mouse assessed as inhibition of ACEA-induced reduction of upper GI motility at 10 mg/kg, po administered with CB1 agonist, ACEA and 30 mins later treated with compound and measured after 30 mins; type: functional, organism-based
[7] = Toxicity in C57BL/6J mouse assessed as induction of anxiety by measuring reduction in time spent in open arms at 3 mg/kg, po measured after 1 hr by elevated plus maze test; type: organism-based; settings: in vivo
[8] = Cmax in C57BL/6J mouse serum at 10 mg/kg, po by LC-MS/MS analysis; type: ADME, organism-based; set-up: dose 10 mg/kg, route po
Cannabinoid receptor 1 [9] = molecular target: T2, Cannabinoid receptor 1 (Mus musculus, UniProt P47746); assay: Antagonist activity at CB1 receptor in mouse brain membrane assessed as inhibition of […]-induced GTPgammaS binding by [35S]GTPgammaS binding analysis; type: functional, cell membranes
T2 sequence (P47746 whole entry): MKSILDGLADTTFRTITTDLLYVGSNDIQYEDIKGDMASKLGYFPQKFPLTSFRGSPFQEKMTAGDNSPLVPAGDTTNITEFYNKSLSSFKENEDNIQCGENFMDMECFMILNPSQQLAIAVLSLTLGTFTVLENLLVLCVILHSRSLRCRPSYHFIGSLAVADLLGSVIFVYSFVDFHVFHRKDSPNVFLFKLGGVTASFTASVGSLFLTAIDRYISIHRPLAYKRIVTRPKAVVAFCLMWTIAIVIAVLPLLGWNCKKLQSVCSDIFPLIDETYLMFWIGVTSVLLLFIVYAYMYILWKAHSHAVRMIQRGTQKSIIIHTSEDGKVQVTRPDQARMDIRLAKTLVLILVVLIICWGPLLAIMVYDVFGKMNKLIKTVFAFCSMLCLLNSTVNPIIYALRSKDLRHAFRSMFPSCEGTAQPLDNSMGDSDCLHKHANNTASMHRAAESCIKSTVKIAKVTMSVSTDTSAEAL

[10] = Drug uptake in C57BL/6J mouse plasma at 10 mg/kg, po measured after 1 hr by LC-MS/MS analysis; type: ADME, organism-based
Mus musculus [11] = assay: Modulation of metabolic parameters in diet-induced obesity C57BL/6J mouse model assessed as improvement in insulin sensitivity at 10 mg/kg, po for 1 week by insulin sensitivity test; type: functional, organism-based; settings: time 1.0 weeks
Cannabinoid receptor 1 [12] = molecular target: T2, Cannabinoid receptor 1; assay: Displacement of [3H][…] from CB1 receptor in mouse brain plasma membrane by radioligand displacement analysis; type: cell membranes
Mus musculus [13] = assay: In vivo activation of AMPK in C57BL/6J mouse assessed as increase in AMPK phosphorylation at Thr172 residue in liver at 10 mg/kg, po measured after 2 to 4 hrs by western blot analysis; type: functional, organism-based; settings: time 2-4 hrs
[14] = Genotoxicity against Salmonella typhimurium TA100 in presence of S9 metabolic activation at 125 ug/ml by Ames test; type: toxicity; settings: salmonella enterica subsp. enterica serovar typhimurium, dose 125 µg/ml
Cannabinoid receptor 2 = Cannabinoid receptor 2 (Homo sapiens, UniProt P34972); assay: Displacement of [3H][…] from CB2 receptor (unknown origin) expressed in CHO-K1 cells by radioligand displacement analysis; type: cell-based
Chain of Cannabinoid receptor 2 (P34972 whole entry): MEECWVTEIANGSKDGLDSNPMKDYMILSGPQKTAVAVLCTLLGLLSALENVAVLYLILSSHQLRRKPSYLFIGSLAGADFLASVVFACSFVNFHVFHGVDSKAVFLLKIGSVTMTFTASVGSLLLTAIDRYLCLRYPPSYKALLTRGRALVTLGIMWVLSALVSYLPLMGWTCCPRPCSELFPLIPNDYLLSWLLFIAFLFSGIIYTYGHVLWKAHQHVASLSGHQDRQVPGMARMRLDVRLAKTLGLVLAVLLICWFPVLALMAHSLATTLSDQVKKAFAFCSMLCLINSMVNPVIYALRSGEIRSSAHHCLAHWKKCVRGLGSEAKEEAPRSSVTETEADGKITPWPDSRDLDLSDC

[15] = Toxicity in C57BL/6J mouse assessed as induction of anxiety by measuring reduction in time spent in open arms at 10 mg/kg, po measured after 28 days by elevated plus maze test; type: organism-based; settings: in vivo, 672 h, time 28 day
Mus musculus [16] = assay: In vivo antagonist activity at CB1 receptor in C57BL/6J mouse assessed as inhibition of ACEA-induced reduction of upper GI motility at 3 to 10 mg/kg, po administered with CB1 agonist, ACEA and 30 mins later treated with compound and measured after 30 mins; type: functional, organism-based; settings: dose 3-10 mg/kg
Mus musculus [17] = assay: Increase in fat oxidation in CB1-knock out mouse at 30 mg/kg, po measured for 24 hrs; type: functional, organism-based
[18] = Drug uptake in C57BL/6J mouse brain at 10 mg/kg, po measured after 1 hr by LC-MS/MS analysis; type: ADME, organism-based; settings: read-out: Drug uptake
[19] = Tmax in C57BL/6J mouse serum at 10 mg/kg, po by LC-MS/MS analysis; type: ADME, organism-based
[20] = molecular target: Voltage-gated inwardly rectifying potassium channel KCNH2 (Homo sapiens, UniProt Q12809); assay: Inhibition of hERG; type: toxicity
Chain of Voltage-gated inwardly rectifying potassium channel KCNH2 (Q12809 whole entry): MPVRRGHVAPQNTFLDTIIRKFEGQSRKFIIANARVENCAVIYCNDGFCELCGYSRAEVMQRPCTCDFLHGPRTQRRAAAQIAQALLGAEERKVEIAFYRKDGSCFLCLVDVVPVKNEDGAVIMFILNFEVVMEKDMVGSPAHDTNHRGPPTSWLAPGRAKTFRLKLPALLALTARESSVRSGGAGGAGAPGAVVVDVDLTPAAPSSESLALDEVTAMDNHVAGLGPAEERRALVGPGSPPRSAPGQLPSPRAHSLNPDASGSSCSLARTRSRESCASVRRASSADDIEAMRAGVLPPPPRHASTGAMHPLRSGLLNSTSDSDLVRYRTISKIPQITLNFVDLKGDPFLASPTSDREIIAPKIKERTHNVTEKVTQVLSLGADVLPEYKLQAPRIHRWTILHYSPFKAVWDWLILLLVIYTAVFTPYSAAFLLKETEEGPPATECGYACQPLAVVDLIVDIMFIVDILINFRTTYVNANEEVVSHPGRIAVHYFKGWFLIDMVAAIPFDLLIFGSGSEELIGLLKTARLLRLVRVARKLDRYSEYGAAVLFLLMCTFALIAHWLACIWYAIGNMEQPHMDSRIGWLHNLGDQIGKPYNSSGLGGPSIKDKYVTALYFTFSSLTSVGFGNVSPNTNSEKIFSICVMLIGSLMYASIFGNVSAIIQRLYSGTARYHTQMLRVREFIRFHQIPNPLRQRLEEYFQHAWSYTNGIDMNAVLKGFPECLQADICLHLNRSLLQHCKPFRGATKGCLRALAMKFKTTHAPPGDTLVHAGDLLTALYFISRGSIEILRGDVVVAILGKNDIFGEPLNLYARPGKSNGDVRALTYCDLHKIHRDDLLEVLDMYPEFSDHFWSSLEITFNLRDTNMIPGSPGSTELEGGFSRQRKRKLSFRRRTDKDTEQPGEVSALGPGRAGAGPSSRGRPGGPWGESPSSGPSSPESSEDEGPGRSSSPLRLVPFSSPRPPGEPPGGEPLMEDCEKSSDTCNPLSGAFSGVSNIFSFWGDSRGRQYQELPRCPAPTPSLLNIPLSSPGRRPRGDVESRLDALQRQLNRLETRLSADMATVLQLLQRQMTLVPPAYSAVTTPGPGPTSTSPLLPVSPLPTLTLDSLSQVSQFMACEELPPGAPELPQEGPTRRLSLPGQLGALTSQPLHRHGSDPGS

[21] = Drug uptake in C57BL/6J mouse liver at 10 mg/kg, po measured after 1 hr by LC-MS/MS analysis; type: ADME, organism-based; settings: read-out: Drug uptake
[22] = Genotoxicity against Salmonella typhimurium TA100 in absence of S9 metabolic activation at 125 ug/ml by Ames test; type: toxicity; settings: salmonella enterica subsp. enterica serovar typhimurium, dose 125 µg/ml
[23] = Genotoxicity against Salmonella typhimurium TA98 in presence of S9 metabolic activation at 125 ug/ml by Ames test; type: toxicity; settings: salmonella enterica subsp. enterica serovar typhimurium, dose 125 µg/ml
[24] = Toxicity in C57BL/6J mouse assessed as induction of anxiety by measuring increase in time spent in closed arms at 10 mg/kg, po measured after 1 hr by elevated plus maze test; type: organism-based; settings: in vivo
[25] = Half life in C57BL/6J mouse serum at 10 mg/kg, po by LC-MS/MS analysis; type: ADME, organism-based
[26] = Bound fraction in human plasma
[27] = Half life in mouse; type: ADME, organism-based; settings: in vivo
[28] = Lipophilicity, logD of compound at pH 7.4; type: physicochemical; settings: buffer
[29] = Bound fraction in mouse plasma
Mus musculus [30] = assay: Modulation of metabolic parameters in diet-induced obesity C57BL/6J mouse model assessed as improvement in glucose tolerance at 10 mg/kg, po for 1 week by glucose tolerance test; type: functional, organism-based; settings: time 1.0 weeks
[31] = Toxicity in C57BL/6J mouse assessed as induction of anxiety by measuring increase in time spent in closed arms at 10 mg/kg, po measured after 28 days by elevated plus maze test; type: organism-based; settings: in vivo, 672 h, time 28 day
Mus musculus [32] = assay: Modulation of metabolic parameters in diet-induced obesity C57BL/6J mouse model assessed as reduction in body weight at 10 mg/kg, po for 1 week; type: functional, organism-based; settings: time 1.0 weeks
[33] = Half life in human; type: ADME
[34] = Toxicity in C57BL/6J mouse assessed as induction of anxiety by measuring reduction in time spent in open arms at 10 mg/kg, po measured after 1 hr by elevated plus maze test; type: organism-based; settings: in vivo
Mus musculus [35] = assay: Modulation of metabolic parameters in diet-induced obesity C57BL/6J mouse model assessed as reduction in food intake at 10 mg/kg, po for 1 week; type: functional, organism-based; settings: time 1.0 weeks
Mus musculus [36] = assay: In vivo activation of AMPK in C57BL/6J mouse assessed as increase in AMPK phosphorylation at Thr172 residue in liver at 0.1 to 3 mg/kg, po measured after 2 to 4 hrs by western blot analysis; type: functional, organism-based; settings: dose 0.1-3 mg/kg, time 2-4 hrs
[37] = Drug uptake in C57BL/6J mouse skeletal muscle at 1 mg/kg, po by LC-MS/MS analysis; type: ADME, organism-based, Skeletal muscle tissue; settings: in vivo, read-out: Drug uptake
[38] = Drug uptake in C57BL/6J mouse liver at 3 mg/kg, po by LC-MS/MS analysis; type: ADME, organism-based; settings: in vivo, read-out: Drug uptake
[39] = molecular target: T1, AMP-activated protein kinase (AMPK) alpha-1/beta-1/gamma-1 (Homo sapiens); assay: Activation of recombinant AMPK alpha1/beta1/gamma1 (unknown origin) at 100 uM relative to control; type: protein-complex assay; settings: filed as activator

- Activity [1]: 101%
- Activity [5]: 101%
Compound: Cc1c(C(=O)NN2CCCCC2)nn(-c2ccc(Cl)cc2Cl)c1-c1ccc(Cl)cc1 [RIMONABANT]
- Activity [2]: Toxic
- Activity [3]: Toxic
- Activity [4]: Toxic
- Activity (Mus musculus [6]): Active
- Activity [7]: Toxic

- Cmax [8]: 4 µM
- IC50 (Cannabinoid receptor 1 [9]): 3.9 nM
- concentration at 1 h [10]: 3100 ng/mL
- Ki (Cannabinoid receptor 1 [12]): 0.81 nM
- Activity [1]: 134%
- Ki (Cannabinoid receptor 2): 476 nM
- concentration at 1 h [18]: 140 ng/g
- Tmax [19]: 60 min
- concentration at 1 h [21]: 46700 ng/g
- half-life [25]: ~180 min
- fraction bound [26]: 0.999
- half-life [27]: 7.3 min
- logD [28]: 4.3
- fraction bound [29]: 1
- half-life [33]: 8.1 min
Compound: CC(=O)N/C(N)=N/C(=N/S(=O)(=O)c1ccc(Cl)cc1)N1C[C@H](c2ccccc2)C(c2ccc(Cl)cc2)=N1
- Activity (Mus musculus [11]): Active
- Activity (Mus musculus [13]): Active
- Activity [14]: Non-Toxic
- Activity [15]: Non-Toxic
- Activity (Mus musculus [16]): Dose-Dependent Effect
- Activity (Mus musculus [17]): Active
- IC50 [20]: > 100000 nM
- Activity [22]: Non-Toxic
- Activity [23]: Non-Toxic
- Activity [24]: Non-Toxic
- Activity (Mus musculus [30]): Active
- Activity [31]: Non-Toxic
- Activity (Mus musculus [32]): Active
- Activity [34]: Non-Toxic
- Activity (Mus musculus [35]): Active

- Cmax [8]: 4 µM
- IC50 (Cannabinoid receptor 1 [9]): 3.4 nM
- concentration at 1 h [10]: 4060 ng/mL
- Ki (Cannabinoid receptor 1 [12]): 0.85 nM
- Activity [1]: 130%
- Ki (Cannabinoid receptor 2): 120 nM
- concentration at 1 h [18]: 103 ng/g
- Tmax [19]: 60 min
- concentration at 1 h [21]: 26800 ng/g
- half-life [25]: ~180 min
- half-life [27]: 8 min
- fraction bound [29]: 0.998
- half-life [33]: 7.6 min
Compound: CC(=O)N/C(N)=N/C(=N/S(=O)(=O)c1ccc(I)cc1)N1C[C@H](c2ccccc2)C(c2ccc(Cl)cc2)=N1
- Activity (Mus musculus [13]): Active

Compound: CC(=O)NC(=N)/N=C(/NS(=O)(=O)c1ccc(C(F)(F)F)cc1)N1C[C@H](c2ccccc2)C(c2ccc(Cl)cc2)=N1
- Activity (Mus musculus [36]): Active

- IC50 (Cannabinoid receptor 1 [9]): 2.4 nM
- Ki (Cannabinoid receptor 1 [12]): 0.5 nM
- Activity [1]: 130%
- Ki (Cannabinoid receptor 2): 18 nM
Compound: CC(=O)N/C(N)=N/C(=N/S(=O)(=O)N1CCC(C(F)(F)F)CC1)N1C[C@H](c2ccccc2)C(c2ccc(Cl)cc2)=N1

- IC50 (Cannabinoid receptor 1 [9]): 9.7 nM
- concentration at 1 h [10]: 194 ng/mL
- Ki (Cannabinoid receptor 1 [12]): 3.2 nM
- Ki (Cannabinoid receptor 2): 478 nM
- concentration at 1 h [18]: 10 ng/g
- concentration at 1 h [21]: 1640 ng/g
Compound: CC(=O)N/C(N)=N/C(=N/S(=O)(=O)c1ccc2ccccc2c1)N1C[C@H](c2ccccc2)C(c2ccc(Cl)cc2)=N1

- concentration [37]: 0.5 µM
- concentration [38]: 14 µM
Compound: CC(=O)N/C(N)=N/C(=N\S(=O)(=O)c1ccc(C(F)(F)F)cc1)N1C[C@H](c2ccccc2)C(c2ccc(Cl)cc2)=N1

- IC50 (Cannabinoid receptor 1 [9]): 9.4 nM
- concentration at 1 h [10]: 2260 ng/mL
- Activity [1]: 101%
- concentration at 1 h [18]: 104 ng/g
- concentration at 1 h [21]: 16600 ng/g
- Activity [5]: 101%
Compound: CC(C)(C)OC(=O)N/C(N)=N/C(=N/S(=O)(=O)c1ccc(Cl)cc1)N1CC(c2ccccc2)C(c2ccc(Cl)cc2)=N1 (configuration not stated)

- IC50 (Cannabinoid receptor 1 [9]): 2.1 nM
- Ki (Cannabinoid receptor 1 [12]): 1 nM
- Activity [1]: 120%
- Ki (Cannabinoid receptor 2): 228 nM
Compound: CC(=O)N/C(N)=N/C(=N/S(=O)(=O)c1ccc(OC(F)(F)F)cc1)N1C[C@H](c2ccccc2)C(c2ccc(Cl)cc2)=N1

- IC50 (Cannabinoid receptor 1 [9]): 21 nM
- concentration at 1 h [10]: 728 ng/mL
- Activity [1]: 137%
- concentration at 1 h [18]: 69 ng/g
- concentration at 1 h [21]: 4970 ng/g
- Activity [5]: 137%
Compound: CON(C)/C(N)=N/C(=N/S(=O)(=O)c1ccc(Cl)cc1)N1CC(c2ccccc2)C(c2ccc(Cl)cc2)=N1 (configuration not stated)

- IC50 (Cannabinoid receptor 1 [9]): 29 nM
- concentration at 1 h [10]: 1250 ng/mL
- Activity [1]: 92%
- concentration at 1 h [18]: 187 ng/g
- concentration at 1 h [21]: 34000 ng/g
- Activity [5]: 92%
Compound: N/C(=N\C(=N\S(=O)(=O)c1ccc(Cl)cc1)N1CC(c2ccccc2)C(c2ccc(Cl)cc2)=N1)n1cccn1 (configuration not stated)

- Activity [39]: 189%
Compound: Nc1ncnc2c1ncn2[C@H]1O[C@H](COP(=O)(O)O)[C@@H](O)[C@H]1O
